From patent US20240216344A1, “THIAZOLIDINEDIONE ANALOGS FOR THE TREATMENT OF NAFLD AND METABOLIC DISEASES” (Cirius Therapeutics, Inc., priority 2019, published 2024) come the findings set out here.

SMILES strings stand for the structures.

The test system of the assay is patients with biopsy-confirmed NASH. As to the kind of experiment: EMMINENCE post hoc multivariable models and canonical correlation of biomarker changes with histological changes. Details: species or system human. The text has this: EMMINENCE was a phase 2 study examining the effects of three doses of MSDC-0602K versus placebo on liver histology in 392 patients with biopsy-confirmed nonalcoholic steatohepatitis (NASH). Patients provided written informed consent, and the protocol and consent form were approved by applicable institutional review boards. Baseline and 12-month biopsies were scored by a single expert hepatopathologist using the NASH Clinical Research Network (CRN) scoring criteria. Fasting blood samples for routine clinical chemistry as well as frozen samples for biomarker assays were analyzed centrally. In this post hoc analysis, multivariable models and partial canonical correlation were used to examine the associations between changes in biomarkers and changes in histological scores from baseline to 12 months in the 339 patients with paired biopsies. The trial was registered on ClinicalTrials.gov (NCT02784444).
Individual patient data from the 339 subjects with paired biopsy results in EMMINENCE were used to construct univariable and multivariable ANCOVA models for the 12-month change in each histological component (steatosis, inflammation, ballooning, and fibrosis). Candidate predictors included age, sex, type 2 diabetes (T2D) history, and baseline and 12-month changes in weight and laboratory parameters (liver injury markers, cholesterols, insulin sensitivity markers, ELF, CK-18). Non-linearity of the association between each continuous predictor and each outcome was examined by assessing the significance of the non-linear components of a restricted cubic spline transformation for each predictor. Appropriate transformations (quadratic, cubic, linear spline, log 2) were applied where deemed necessary based on review of the Akaike's Information Criterion and visual examination of plots of the predicted outcomes against each predictor. Due to issues with estimating the associations when severe multicollinearity exists between predictors in the model, ALT (collinear with AST) and waist circumference (collinear with weight) were excluded as candidate predictors. Multiple imputation with ten imputed datasets and assuming multivariate normality was used to handle missing values. The occurrence of missing data for any of the predictors was relatively low ([…] missing one or more predictor values). Rubin's algorithm was used for average estimates for predictors across the imputed datasets. Backwards selection was used for each outcome, with predictors remaining in a majority of the ten imputed datasets at the 0.05 significance level (>5) included in the final model. Each model was adjusted for the baseline value of the outcome. If a change from baseline predictor was included in the final model, then the baseline value for the parameter was also included in the final model.
A second multivariable model was fit for each outcome including the predictors found prognostic for any of the biopsy component changes. A multivariable ANCOVA model that included these predictors was run for NAS (the sum of ballooning, inflammation, and steatosis scores). Multivariable logistic regression models that included these predictors were also run for the binary outcomes of NASH resolution without worsening of fibrosis and fibrosis improvement without worsening of NASH.
A partial canonical correlation using individual patient data from EMMINENCE examined the correlation of changes in weight, AST, HbA1c, GGT, CK-18 (taken together) with changes in ballooning, inflammation, steatosis, and fibrosis (taken together) adjusted for those baseline variables prognostic of any of the histological feature changes in the multivariable models in the 306 subjects with complete observed data for the variables involved. This analysis results in “canonical variates” that are linear combinations of the original sets of variables weighted in such a way as to maximize the correlation between them. […]

The mark [1] stands for this setting: effect size for a change of 20 in MSDC-0602K Dose, multivariable model with dose added.
[2] abbreviates: effect size for a change of 20 in MSDC-0602K Dose, univariable model.

Consider `COc1cccc(C(=O)COc2ccc(CC3SC(=O)NC3=O)cc2)c1` (stereo not drawn) [MSDC-0602K], for which the “Effect Size, change from baseline in steatosis, Multivariable Model” value (MSDC-0602K Dose, multivariable model with dose added, size of change not given) was −0.03. Moreover, for the setting “Multivariable model”, the “Effect Size for a change of 20 in MSDC-0602K Dose; outcome change from baseline in fibrosis” value was −0.01 and the “Effect Size for change of 20 in MSDC-0602K Dose; outcome NAS” value is −0.03. Moreover, where the note is “Univariable Model”, the “Effect Size for a change of 20 in MSDC-0602K Dose; outcome change from baseline in fibrosis” value is given as −0.02. Besides, under setting [1], the “Effect Size, change from baseline in ballooning, Multivariable Model” value is reported as −0.02 and the “Effect Size, change from baseline in inflammation, Multivariable Model” value was 0.01. For the same molecule, under setting [2], the “Effect Size, change from baseline in ballooning, Univariable Model” value is on record as −0.01; the “Effect Size, change from baseline in inflammation, Univariable Model” value was −0.01; the “Effect Size, change from baseline in steatosis, Univariable Model” value is on record as −0.03.
